In the OligoGym collection:
Oligonucleotides are written 5' to 3', each unit as a sugar letter and its base; * is a phosphorothioate linkage, no mark a phosphodiester; rarer units and linkages stand in square brackets, end groups in braces. Plain capitals give the bases only. d = 2'-deoxy (DNA); r = 2'-OH (RNA)
Note: test concentration or dose not given here.

The substances below were run against RHOQ (assay: reporter assay of Huesken 2005). Conditions: siRNA.
“sense rCrArGrArUrArArUrGrGrArUrGrCrArUrCrArGdTdT / antisense rCrUrGrArUrGrCrArUrCrCrArUrUrArUrCrUrGdAdT” gave a normalised inhibition (eCFP-eYFP dual reporter) of 80.4%. Work on “sense rCrArGrArUrUrGrGrGrUrArArUrGrGrArArCrAdTdT / antisense rUrGrUrUrCrCrArUrUrArCrCrCrArArUrCrUrGdTdG” yielded a normalised inhibition (eCFP-eYFP dual reporter) of 86.3%. “sense rCrArUrGrCrArUrCrArGrArUrArArUrGrGrArUdTdT / antisense rArUrCrCrArUrUrArUrCrUrGrArUrGrCrArUrGdGdC” gave a normalised inhibition (eCFP-eYFP dual reporter) of 72.3%. In the case of “sense rCrArUrUrUrArArArCrUrUrGrCrUrGrUrUrGrCdTdT / antisense rGrCrArArCrArGrCrArArGrUrUrUrArArArUrGdTdA”, the normalised inhibition (eCFP-eYFP dual reporter) was 74.6%. “sense rCrArUrUrUrGrGrArUrGrUrCrUrUrCrUrUrUrCdTdT / antisense rGrArArArGrArArGrArCrArUrCrCrArArArUrGdTdC” showed a normalised inhibition (eCFP-eYFP dual reporter) of 73.6%. “sense rCrCrUrUrArUrGrUrArUrGrCrUrCrArArArUrGdTdT / antisense rCrArUrUrUrGrArGrCrArUrArCrArUrArArGrGdCdC” showed a normalised inhibition (eCFP-eYFP dual reporter) of 65.1%. In the case of “sense rCrUrArCrArUrUrUrArArArCrUrUrGrCrUrGrUdTdT / antisense rArCrArGrCrArArGrUrUrUrArArArUrGrUrArGdGdA”, the normalised inhibition (eCFP-eYFP dual reporter) was 82.5%. Substance “sense rCrUrCrArArArUrGrGrArArUrCrUrUrArUrGrUdTdT / antisense rArCrArUrArArGrArUrUrCrCrArUrUrUrGrArGdCdA” has a normalised inhibition (eCFP-eYFP dual reporter) of 55.5%. Substance “sense rCrUrGrGrArUrGrArCrUrGrGrCrCrArGrGrArAdTdT / antisense rUrUrCrCrUrGrGrCrCrArGrUrCrArUrCrCrArGdTdA” has a normalised inhibition (eCFP-eYFP dual reporter) of 75.7%. “sense rCrUrGrUrGrGrArUrCrUrGrCrCrUrUrArUrUrGdTdT / antisense rCrArArUrArArGrGrCrArGrArUrCrCrArCrArGdCdA” gave a normalised inhibition (eCFP-eYFP dual reporter) of 79%. For “sense rCrUrUrArUrGrUrArUrGrCrUrCrArArArUrGrGdTdT / antisense rCrCrArUrUrUrGrArGrCrArUrArCrArUrArArGdGdC”, the normalised inhibition (eCFP-eYFP dual reporter) was 44%. “sense rCrUrUrArUrUrUrArArUrUrUrUrGrGrUrCrUrGdTdT / antisense rCrArGrArCrCrArArArArUrUrArArArUrArArGdAdA” was tested, and the normalised inhibition (eCFP-eYFP dual reporter) was 52.2%. Substance “sense rCrUrUrCrUrUrUrCrUrUrCrCrArArGrArArArUdTdT / antisense rArUrUrUrCrUrUrGrGrArArGrArArArGrArArGdAdC” has a normalised inhibition (eCFP-eYFP dual reporter) of 53.7%. In the case of “sense rGrArArArGrGrArArUrUrGrUrArUrArArArUrCdTdT / antisense rGrArUrUrUrArUrArCrArArUrUrCrCrUrUrUrCdAdA”, the normalised inhibition (eCFP-eYFP dual reporter) was 51.4%. “sense rGrArGrArGrUrCrUrArCrUrGrGrArUrGrArCrUdTdT / antisense rArGrUrCrArUrCrCrArGrUrArGrArCrUrCrUrCdTdC” gave a normalised inhibition (eCFP-eYFP dual reporter) of 77.3%. In the case of “sense rGrCrArUrCrArGrArUrArArUrGrGrUrGrUrUrAdTdT / antisense rUrArArCrArCrCrArUrUrArUrCrUrGrArUrGrCdAdT”, the normalised inhibition (eCFP-eYFP dual reporter) was 92.8%. With “sense rGrGrArUrGrUrCrUrUrCrUrUrUrCrUrUrCrCrAdTdT / antisense rUrGrGrArArGrArArArGrArArGrArCrArUrCrCdAdA” the normalised inhibition (eCFP-eYFP dual reporter) was 83.2%. “sense rUrArArArGrUrArUrCrArUrGrGrCrCrUrUrArUdTdT / antisense rArUrArArGrGrCrCrArUrGrArUrArCrUrUrUrAdAdT” showed a normalised inhibition (eCFP-eYFP dual reporter) of 75.9%. Work on “sense rUrArCrUrGrGrArUrGrArCrUrGrGrCrCrArGrGdTdT / antisense rCrCrUrGrGrCrCrArGrUrCrArUrCrCrArGrUrAdGdA” yielded a normalised inhibition (eCFP-eYFP dual reporter) of 55.2%. “sense rUrArGrCrUrArUrGrUrCrUrArCrUrGrCrArCrAdTdT / antisense rUrGrUrGrCrArGrUrArGrArCrArUrArGrCrUrAdTdA” showed a normalised inhibition (eCFP-eYFP dual reporter) of 86.8%. In the case of “sense rUrArUrArGrCrUrArUrGrUrCrUrArCrUrGrCrAdTdT / antisense rUrGrCrArGrUrArGrArCrArUrArGrCrUrArUrAdAdG”, the normalised inhibition (eCFP-eYFP dual reporter) was 77.6%. With “sense rUrArUrGrCrCrArUrGrCrArUrCrArGrArUrArAdTdT / antisense rUrUrArUrCrUrGrArUrGrCrArUrGrGrCrArUrAdTdG” the normalised inhibition (eCFP-eYFP dual reporter) was 75.7%. Substance “sense rUrArUrGrCrUrCrArArArUrGrGrArArUrCrUrUdTdT / antisense rArArGrArUrUrCrCrArUrUrUrGrArGrCrArUrAdCdA” has a normalised inhibition (eCFP-eYFP dual reporter) of 54.7%. Work on “sense rUrCrArCrArUrGrArCrUrUrGrArGrCrUrUrArUdTdT / antisense rArUrArArGrCrUrCrArArGrUrCrArUrGrUrGrAdAdT” yielded a normalised inhibition (eCFP-eYFP dual reporter) of 87%. Substance “sense rUrCrGrGrArCrArUrUrUrGrGrArUrGrUrCrUrUdTdT / antisense rArArGrArCrArUrCrCrArArArUrGrUrCrCrGrAdTdT” has a normalised inhibition (eCFP-eYFP dual reporter) of 83%. “sense rUrCrUrUrArUrUrUrArArUrUrUrUrGrGrUrCrUdTdT / antisense rArGrArCrCrArArArArUrUrArArArUrArArGrAdAdA” gave a normalised inhibition (eCFP-eYFP dual reporter) of 44.2%. Work on “sense rUrGrArArArArUrGrArCrArGrCrCrUrUrArArAdTdT / antisense rUrUrUrArArGrGrCrUrGrUrCrArUrUrUrUrCrAdAdG” yielded a normalised inhibition (eCFP-eYFP dual reporter) of 78.8%. For “sense rUrGrArArGrArGrUrGrGrArGrArGrArGrUrCrUdTdT / antisense rArGrArCrUrCrUrCrUrCrCrArCrUrCrUrUrCrAdAdT”, the normalised inhibition (eCFP-eYFP dual reporter) was 70.7%. “sense rUrGrArArUrCrGrGrArCrArUrUrUrGrGrArUrGdTdT / antisense rCrArUrCrCrArArArUrGrUrCrCrGrArUrUrCrAdGdA” gave a normalised inhibition (eCFP-eYFP dual reporter) of 38.9%. Work on “sense rUrGrArCrUrUrGrArGrCrUrUrArUrArGrCrUrAdTdT / antisense rUrArGrCrUrArUrArArGrCrUrCrArArGrUrCrAdTdG” yielded a normalised inhibition (eCFP-eYFP dual reporter) of 84.9%. “sense rUrGrCrArUrCrArGrArUrArArUrGrGrUrGrUrUdTdT / antisense rArArCrArCrCrArUrUrArUrCrUrGrArUrGrCrAdTdC” was tested, and the normalised inhibition (eCFP-eYFP dual reporter) was 61.6%. “sense rUrGrCrArUrUrUrUrArGrArGrArArArCrArArUdTdT / antisense rArUrUrGrUrUrUrCrUrCrUrArArArArUrGrCrAdTdT” showed a normalised inhibition (eCFP-eYFP dual reporter) of 84.9%. With “sense rUrGrCrCrArUrGrCrArUrCrArGrArUrArArUrGdTdT / antisense rCrArUrUrArUrCrUrGrArUrGrCrArUrGrGrCrAdTdA” the normalised inhibition (eCFP-eYFP dual reporter) was 59.7%. For “sense rUrGrCrUrCrArUrArUrCrArGrUrCrArCrArArAdTdT / antisense rUrUrUrGrUrGrArCrUrGrArUrArUrGrArGrCrAdTdT”, the normalised inhibition (eCFP-eYFP dual reporter) was 83.6%. Work on “sense rUrGrCrUrGrUrUrGrCrCrCrArArArUrUrArUrAdTdT / antisense rUrArUrArArUrUrUrGrGrGrCrArArCrArGrCrAdAdG” yielded a normalised inhibition (eCFP-eYFP dual reporter) of 85.6%. For “sense rUrGrGrArUrCrUrGrCrCrUrUrArUrUrGrCrArUdTdT / antisense rArUrGrCrArArUrArArGrGrCrArGrArUrCrCrAdCdA”, the normalised inhibition (eCFP-eYFP dual reporter) was 88.7%. With “sense rUrGrGrArUrGrUrCrUrUrCrUrUrUrCrUrUrCrCdTdT / antisense rGrGrArArGrArArArGrArArGrArCrArUrCrCrAdAdA” the normalised inhibition (eCFP-eYFP dual reporter) was 68.4%. In the case of “sense rUrGrUrArUrGrUrGrArGrCrUrUrUrGrUrArGrAdTdT / antisense rUrCrUrArCrArArArGrCrUrCrArCrArUrArCrAdAdC”, the normalised inhibition (eCFP-eYFP dual reporter) was 75.3%. With “sense rUrGrUrGrArArCrArArCrCrUrArArUrGrCrArUdTdT / antisense rArUrGrCrArUrUrArGrGrUrUrGrUrUrCrArCrAdAdT” the normalised inhibition (eCFP-eYFP dual reporter) was 75.4%. With “sense rUrGrUrGrGrArUrCrUrGrCrCrUrUrArUrUrGrCdTdT / antisense rGrCrArArUrArArGrGrCrArGrArUrCrCrArCrAdGdC” the normalised inhibition (eCFP-eYFP dual reporter) was 68.8%. In the case of “sense rUrUrArArUrUrCrArCrArUrGrArCrUrUrGrArGdTdT / antisense rCrUrCrArArGrUrCrArUrGrUrGrArArUrUrArAdCdA”, the normalised inhibition (eCFP-eYFP dual reporter) was 54.4%. For “sense rUrUrCrCrArArGrArArArUrGrGrUrGrGrUrUrCdTdT / antisense rGrArArCrCrArCrCrArUrUrUrCrUrUrGrGrArAdGdA”, the normalised inhibition (eCFP-eYFP dual reporter) was 38.3%. With “sense rUrUrGrArArArArUrGrArCrArGrCrCrUrUrArAdTdT / antisense rUrUrArArGrGrCrUrGrUrCrArUrUrUrUrCrArAdGdT” the normalised inhibition (eCFP-eYFP dual reporter) was 87.1%. Work on “sense rUrUrGrCrUrGrUrUrGrCrCrCrArArArUrUrArUdTdT / antisense rArUrArArUrUrUrGrGrGrCrArArCrArGrCrArAdGdT” yielded a normalised inhibition (eCFP-eYFP dual reporter) of 83.5%. Work on “sense rUrUrGrUrGrArArCrArArCrCrUrArArUrGrCrAdTdT / antisense rUrGrCrArUrUrArGrGrUrUrGrUrUrCrArCrArAdTdG” yielded a normalised inhibition (eCFP-eYFP dual reporter) of 83%. Work on “sense rUrUrUrCrUrUrArUrUrUrArArUrUrUrUrGrGrUdTdT / antisense rArCrCrArArArArUrUrArArArUrArArGrArArAdGdT” yielded a normalised inhibition (eCFP-eYFP dual reporter) of 44.1%.

These substances were tested against UBE2I (assay: reporter assay of Huesken 2005). Conditions: siRNA.
For “sense rArArArUrGrUrArArArUrUrCrGrArArCrCrArCdTdT / antisense rGrUrGrGrUrUrCrGrArArUrUrUrArCrArUrUrUdTdG”, the normalised inhibition (eCFP-eYFP dual reporter) was 53.9%. With “sense rArArCrCrArArArUrArUrCrCrArArGrArCrCrCdTdT / antisense rGrGrGrUrCrUrUrGrGrArUrArUrUrUrGrGrUrUdCdA” the normalised inhibition (eCFP-eYFP dual reporter) was 48.9%. Work on “sense rArArCrCrUrCrArUrGrArArCrUrGrGrGrArGrUdTdT / antisense rArCrUrCrCrCrArGrUrUrCrArUrGrArGrGrUrUdCdA” yielded a normalised inhibition (eCFP-eYFP dual reporter) of 34.5%. “sense rArArGrArArArGrGrGrArCrUrCrCrGrUrGrGrGdTdT / antisense rCrCrCrArCrGrGrArGrUrCrCrCrUrUrUrCrUrUdTdC” gave a normalised inhibition (eCFP-eYFP dual reporter) of 45.6%. For “sense rArArUrGrUrGrUrArCrCrCrUrUrCrGrGrGrGrAdTdT / antisense rUrCrCrCrCrGrArArGrGrGrUrArCrArCrArUrUdCdG”, the normalised inhibition (eCFP-eYFP dual reporter) was 59.6%. Work on “sense rArCrArGrUrGrUrGrCrCrUrGrUrCrCrArUrCrUdTdT / antisense rArGrArUrGrGrArCrArGrGrCrArCrArCrUrGrUdCdC” yielded a normalised inhibition (eCFP-eYFP dual reporter) of 59.2%.
